The target in data set [1] is T1, Melanin Concentrating Hormone Receptor 1 (MCHR1) (Homo sapiens, UniProt Q99705).
T1 construct: expressed in transfected cells
Nature of the data set: MCHR1 Receptor Activation Assay (GTPγ^35S). The class given is biochemical.

This note sets out measurements from patent US8546375B2, “(3-(4-(aminomethyl)phenoxy or phenylthio)azetidin-1-yl)(5-phenyl-1,3,4-oxadiazol-2-yl)methanone compounds” (AstraZeneca AB, priority 2010, dated 2013).

Like-named read-outs stand apart in the source and are kept apart here.

T1 sequence (Q99705 whole entry): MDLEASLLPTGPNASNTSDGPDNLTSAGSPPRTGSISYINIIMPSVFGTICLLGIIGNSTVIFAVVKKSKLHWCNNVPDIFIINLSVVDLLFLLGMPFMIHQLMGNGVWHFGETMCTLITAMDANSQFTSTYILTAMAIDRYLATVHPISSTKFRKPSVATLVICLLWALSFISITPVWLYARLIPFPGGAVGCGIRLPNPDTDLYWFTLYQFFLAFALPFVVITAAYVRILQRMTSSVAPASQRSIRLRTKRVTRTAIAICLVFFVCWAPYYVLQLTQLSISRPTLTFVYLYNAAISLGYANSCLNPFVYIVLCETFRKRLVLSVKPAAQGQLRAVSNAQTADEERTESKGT

The term IC50 denotes the midpoint of a concentration-inhibition curve. The term melting point denotes the temperature, or range, at which the solid turns liquid. For the compound `Cc1cc(OC2CN(C(=O)c3nnc(-c4ccccc4)o3)C2)ccc1CN(C)C` [Example 21, (3-(4-((Dimethylamino)methyl)-3-methylphenoxy)azetidin-1-yl)(5-phenyl-1,3,4-oxadiazol-2-yl)methanone], the melting point came to 135 °C. The IC50 in data set [1] (read-out: GTPγ^35S IC50) was found to be 22 nM.

In the case of `COc1ccc(-c2nnc(C(=O)N3CC(Oc4ccc(CN5CCC(C)(CO)C5)cc4C)C3)o2)cc1` (stereo not drawn) [Example 90, (3-(4-((3-(hydroxymethyl)-3-methylpyrrolidin-1-yl)methyl)-2-methylphenoxy)azetidin-1-yl)(5-(4-methoxyphenyl)-1,3,4-oxadiazol-2-yl)methanone], the IC50 in data set [1] (read-out: GTPγ^35S IC50) was 16 nM.

For `COc1ccc(-c2nnc(C(=O)N3CC(Oc4ccc(CN5CCC(C)(CO)C5)c(C)c4)C3)o2)cc1` (stereo not drawn) [Example 91, (3-(4-((3-(hydroxymethyl)-3-methylpyrrolidin-1-yl)methyl)-3-methylphenoxy)azetidin-1-yl)(5-(4-methoxyphenyl)-1,3,4-oxadiazol-2-yl)methanone], the IC50 in data set [1] (read-out: GTPγ^35S IC50) stood at 11 nM.

In the case of `CCC1(CO)CCN(Cc2ccc(OC3CN(C(=O)c4nnc(-c5ccc(OC)cc5)o4)C3)cc2)CC1` [Example 92, (3-(4-((4-Ethyl-4-(hydroxymethyl)piperidin-1-yl)methyl)phenoxy)azetidin-1-yl)(5-(4-methoxyphenyl)-1,3,4-oxadiazol-2-yl)methanone], the IC50 in data set [1] (read-out: GTPγ^35S IC50) amounted to 15 nM.

Consider `Cc1cc(OC2CN(C(=O)c3nnc(-c4ccccc4)o3)C2)ccc1CN(C1CC1)C1CC1` [[3-[4-[(dicyclopropylamino)methyl]-3-methyl-phenoxy]azetidin-1-yl]-(5-phenyl-1,3,4-oxadiazol-2-yl)methanone], for which the IC50 in data set [1] (when tested in the above referenced assays (MCH binding assay; MCHR1 receptor activation assay), read-out: IC50 value) is at least 100 nM.
